Measurements as given in patent publication US12060347B2 (BRISTOL-MYERS SQUIBB COMPANY, priority 2016, dated 2024).
pIC50: −log10 of the molar value.

Biological target: T1, human PAR4 (Homo sapiens, UniProt Q96RI0)
T1 construct: expressed in transfected cells; host or cells: HEK293 PAR4 Clone 1.2A (BMS Arctic ID 383940)
T1 sequence (Q96RI0 18-385): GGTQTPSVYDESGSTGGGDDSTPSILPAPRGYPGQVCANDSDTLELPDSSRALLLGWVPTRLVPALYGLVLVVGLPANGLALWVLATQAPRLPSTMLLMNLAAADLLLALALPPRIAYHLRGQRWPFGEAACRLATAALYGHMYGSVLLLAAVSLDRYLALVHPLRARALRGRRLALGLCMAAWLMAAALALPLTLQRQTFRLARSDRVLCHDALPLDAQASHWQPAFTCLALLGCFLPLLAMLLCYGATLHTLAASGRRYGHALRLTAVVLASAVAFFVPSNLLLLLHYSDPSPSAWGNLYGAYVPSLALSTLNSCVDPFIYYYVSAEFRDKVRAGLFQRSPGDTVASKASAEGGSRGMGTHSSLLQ
Test: PAR4 FLIPR assay: antagonism of agonist-peptide-induced calcium mobilization in PAR4-expressing HEK293 cells
Type: cell-based
Details: H-Ala-Phe(4-F)-[…]NH2-induced intracellular calcium mobilization, 11-point curves

pIC50	Structure (SMILES)
9.15	COc1cnc2c(-c3nc4cc(F)c(O[C@@H](C)[C@@H](C)OC(=O)Nc5cncc(O)c5)cc4s3)cc(C)cc2n1 [Example 533, (2R,3S)-3-((5-fluoro-2-(2-methoxy-7-methylquinoxalin-5-yl)benzo[d]thiazol-6-yl)oxy)butan-2-yl (5-hydroxypyridin-3-yl)carbamate]
9.05	COc1cnc2c(-c3nc4cc(F)c(O[C@@H](C)[C@@H](C)OC(=O)Nc5cncc(OCCO)c5)cc4s3)cc(C)cc2n1 [Example 534, (2R,3S)-3-((5-fluoro-2-(2-methoxy-7-methylquinoxalin-5-yl)benzo[d]thiazol-6-yl)oxy) butan-2-yl (5-(2-hydroxyethoxy)pyridin-3-yl)carbamate]
8.28	CCOc1cnc2c(-c3nc4cc(F)c(O[C@@H](C)[C@@H](C)OC(=O)Nc5cnc([C@H](C)O)nc5)cc4s3)cc(C)cc2n1 [Example 535, (2R,3S)-3-((2-(2-ethoxy-7-methylquinoxalin-5-yl)-5-fluorobenzo[d]thiazol-6-yl)oxy)butan-2-yl (2-((S)-1-hydroxyethyl)pyrimidin-5-yl)carbamate]
8.31	CCOc1cnc2c(-c3nc4cc(F)c(O[C@@H](C)[C@@H](C)OC(=O)Nc5cnc([C@@H](C)O)nc5)cc4s3)cc(C)cc2n1 [Example 536, (2R,3S)-3-((2-(2-ethoxy-7-methylquinoxalin-5-yl)-5-fluorobenzo[d]thiazol-6-yl)oxy) butan-2-yl (2-((R)-1-hydroxyethyl)pyrimidin-5-yl)carbamate]
8.19	COc1cnc2c(-c3nc4cc(F)c(O[C@@H](C)[C@@H](C)OC(=O)Nc5cnc(CO)nc5)cc4s3)cc(Cl)cc2c1 [Example 539, (2R,3S)-3-((2-(6-chloro-3-methoxyquinolin-8-yl)-5-fluorobenzo[d]thiazol-6-yl)oxy)butan-2-yl (2-(hydroxymethyl)pyrimidin-5-yl)carbamate]
8.52	COc1cnc2c(-c3nc4cc(F)c(O[C@@H](C)[C@@H](C)OC(=O)Nc5cnc(OC[C@@H](C)O)nc5)cc4s3)cc(Cl)cc2c1 [Example 540, (2R,3S)-3-((2-(6-chloro-3-methoxyquinolin-8-yl)-5-fluorobenzo[d]thiazol-6-yl)oxy)butan-2-yl (2-((R)-2-hydroxypropoxy)pyrimidin-5-yl)carbamate]
8.47	COc1cnc2c(-c3nc4cc(F)c(O[C@@H](C)[C@@H](C)OC(=O)Nc5cnc(OC[C@H](C)O)nc5)cc4s3)cc(Cl)cc2c1 [Example 541, (2R,3S)-3-((2-(6-chloro-3-methoxyquinolin-8-yl)-5-fluorobenzo[d]thiazol-6-yl)oxy)butan-2-yl (2-((S)-2-hydroxypropoxy)pyrimidin-5-yl)carbamate]
8.80	COc1cnc2c(-c3nc4c(Cl)c(F)c(OC[C@@H](C)OC(=O)Nc5ccc(CCO)nc5)cc4s3)cc(C)cc2n1 [Example 542, (R)-1-((4-chloro-5-fluoro-2-(2-methoxy-7-methylquinoxalin-5-yl)benzo[d]thiazol-6-yl)oxy)propan-2-yl (6-(2-hydroxyethyl)pyridin-3-yl)carbamate]
8.89	COc1cnc2c(-c3nc4cc(F)c(OC[C@@H](C)OC(=O)Nc5ccc(CCO)nc5)cc4s3)cc(C)cc2n1 [Example 543, (R)-1-((5-fluoro-2-(2-methoxy-7-methylquinoxalin-5-yl)benzo[d]thiazol-6-yl)oxy)propan-2-yl (6-(2-hydroxyethyl)pyridin-3-yl)carbamate]
7.47	COc1cnc2c(-c3nc4cc(F)c(OC[C@@H](C)OC(=O)Nc5cnc(C)c(CO)c5)cc4s3)cc(C)cc2n1 [Example 544, (R)-1-((5-fluoro-2-(2-methoxy-7-methylquinoxalin-5-yl)benzo[d]thiazol-6-yl)oxy)propan-2-yl (5-(hydroxymethyl)-6-methylpyridin-3-yl)carbamate]
8.82	COc1cnc2c(-c3nc4cc(F)c(OC[C@@H](C)OC(=O)Nc5ccnc(CCO)c5)cc4s3)cc(C)cc2n1 [Example 545, (R)-1-((5-fluoro-2-(2-methoxy-7-methylquinoxalin-5-yl)benzo[d]thiazol-6-yl)oxy)propan-2-yl (2-(2-hydroxyethyl)pyridin-4-yl)carbamate]
7.85	COc1cnc2c(-c3nc4cc(F)c(OC[C@@H](C)OC(=O)Nc5ccc(CO)nc5)cc4s3)cc(C)cc2n1 [Example 546, (R)-1-((5-fluoro-2-(2-methoxy-7-methylquinoxalin-5-yl)benzo[d]thiazol-6-yl)oxy)propan-2-yl (6-(hydroxymethyl)pyridin-3-yl)carbamate]
8.28	COc1cnc2c(-c3nc4cc(F)c(O[C@@H](C)[C@@H](C)OC(=O)Nc5ccnc(CCO)c5)cc4s3)cc(C)cc2n1 [Example 547, (2R,3S)-3-((5-fluoro-2-(2-methoxy-7-methylquinoxalin-5-yl)benzo[d]thiazol-6-yl)oxy)butan-2-yl (2-(2-hydroxyethyl)pyridin-4-yl)carbamate]
9.00	COc1cnc2c(-c3nc4cc(F)c(O[C@@H](C)[C@@H](C)OC(=O)Nc5ccnc(O[C@H](C)CO)c5)cc4s3)cc(C)cc2n1 [Example 549, (2R,3S)-3-((5-fluoro-2-(2-methoxy-7-methylquinoxalin-5-yl)benzo[d]thiazol-6-yl)oxy)butan-2-yl (2-(((R)-1-hydroxypropan-2-yl)oxy)pyridin-4-yl)carbamate]
9.40	COc1cnc2c(-c3nc4cc(F)c(O[C@@H](C)[C@@H](C)OC(=O)Nc5ccnc(OC[C@@H](C)O)c5)cc4s3)cc(C)cc2n1 [Example 550, (2R,3S)-3-((5-fluoro-2-(2-methoxy-7-methylquinoxalin-5-yl)benzo[d]thiazol-6-yl)oxy)butan-2-yl (2-((R)-2-hydroxypropoxy)pyridin-4-yl)carbamate]
9.15	COc1cnc2c(-c3nc4cc(F)c(OC[C@@H](C)OC(=O)Nc5ccnc(OCCO)c5)cc4s3)cc(C)cc2n1 [Example 552, (R)-1-((5-fluoro-2-(2-methoxy-7-methylquinoxalin-5-yl)benzo[d]thiazol-6-yl)oxy)propan-2-yl (2-(2-hydroxyethoxy)pyridin-4-yl)carbamate]
8.92	COc1cnc2c(-c3nc4cc(F)c(OC[C@@H](C)OC(=O)Nc5cnc(O[C@H](C)CO)nc5)cc4s3)cc(C)cc2n1 [Example 553, (R)-1-((5-fluoro-2-(2-methoxy-7-methylquinoxalin-5-yl)benzo[d]thiazol-6-yl)oxy)propan-2-yl (2-(((R)-1-hydroxypropan-2-yl)oxy)pyrimidin-5-yl)carbamate]
9.15	COc1cnc2c(-c3nc4cc(F)c(O[C@@H](C)[C@@H](C)OC(=O)Nc5cnc(O[C@H](C)CO)nc5)cc4s3)cc(C)cc2n1 [Example 554, (2R,3S)-3-((5-fluoro-2-(2-methoxy-7-methylquinoxalin-5-yl)benzo[d]thiazol-6-yl)oxy)butan-2-yl (2-(((R)-1-hydroxypropan-2-yl)oxy)pyrimidin-5-yl)carbamate]
8.96	COc1cnc2c(-c3nc4cc(F)c(OC[C@@H](C)OC(=O)Nc5cnc(OCCO)nc5)cc4s3)cc(C)cc2n1 [Example 555, (R)-1-((5-fluoro-2-(2-methoxy-7-methylquinoxalin-5-yl)benzo[d]thiazol-6-yl)oxy)propan-2-yl (2-(2-hydroxyethoxy)pyrimidin-5-yl)carbamate]
9.15	COc1cnc2c(-c3nc4cc(F)c(O[C@@H](C)[C@@H](C)OC(=O)Nc5cnc(OCCO)nc5)cc4s3)cc(C)cc2n1 [Example 556, (2R,3S)-3-((5-fluoro-2-(2-methoxy-7-methylquinoxalin-5-yl)benzo[d]thiazol-6-yl)oxy)butan-2-yl (2-(2-hydroxyethoxy)pyrimidin-5-yl)carbamate]
9.15	COc1cnc2c(-c3nc4cc(F)c(OC[C@@H](C)OC(=O)Nc5ccc(CC(C)(C)O)nc5)cc4s3)cc(C)cc2n1 [Example 557, (R)-1-((5-fluoro-2-(2-methoxy-7-methylquinoxalin-5-yl)benzo[d]thiazol-6-yl)oxy)propan-2-yl (6-(2-hydroxy-2-methylpropyl)pyridin-3-yl)carbamate]
8.82	COc1cnc2c(-c3nc4cc(F)c(OC[C@@H](C)OC(=O)Nc5cnc(O[C@@H](C)CO)nc5)cc4s3)cc(C)cc2n1 [Example 558, (R)-1-((5-fluoro-2-(2-methoxy-7-methylquinoxalin-5-yl)benzo[d]thiazol-6-yl)oxy)propan-2-yl (2-(((S)-1-hydroxypropan-2-yl)oxy)pyrimidin-5-yl)carbamate]
9.05	COc1cnc2c(-c3nc4cc(F)c(O[C@@H](C)[C@@H](C)OC(=O)Nc5ccc(CC(C)(C)O)nc5)cc4s3)cc(C)cc2n1 [Example 559, (2R,3S)-3-((5-fluoro-2-(2-methoxy-7-methylquinoxalin-5-yl)benzo[d]thiazol-6-yl)oxy)butan-2-yl (6-(2-hydroxy-2-methylpropyl)pyridin-3-yl)carbamate]
8.85	COc1cnc2c(-c3nc4cc(F)c(O[C@@H](C)[C@@H](C)OC(=O)Nc5cnc(O[C@@H](C)CO)nc5)cc4s3)cc(C)cc2n1 [Example 560, (2R,3S)-3-((5-fluoro-2-(2-methoxy-7-methylquinoxalin-5-yl)benzo[d]thiazol-6-yl)oxy)butan-2-yl (2-(((S)-1-hydroxypropan-2-yl)oxy)pyrimidin-5-yl)carbamate]
7.28	COc1cnc2c(-c3nc4cc(F)c(O[C@@H](C)[C@@H](C)OC(=O)Nc5ccnc(CC(C)(C)O)c5)cc4s3)cc(C)cc2n1 [Example 561, (2R,3S)-3-((5-fluoro-2-(2-methoxy-7-methylquinoxalin-5-yl)benzo[d]thiazol-6-yl)oxy)butan-2-yl (2-(2-hydroxy-2-methylpropyl)pyridin-4-yl)carbamate]
